Laboratory results: US20250346600A1, “TRICYCLIC DERIVATIVES AND RELATED USES” (MOMA Therapeutics, Inc., priority 2023, published 2025)
Read-outs that look alike come from different tables or passages of the source.

What was measured:
[1] = molecular target: Full length WRN protein (aa 2-1432) (Homo sapiens (Human), UniProt Q14191); experiment: WRN ATPase ADP-Glo biochemical assay, Assay Format B (100 μM ATP); conditions: 0.25 nM WRN, 100 nM C6.18 ssDNA, 60 min preincubation, read-out: ATPase ADPGlo AC50 (uM)- Assay Format B
Chain of Full length WRN protein (aa 2-1432) (Q14191 2-1432): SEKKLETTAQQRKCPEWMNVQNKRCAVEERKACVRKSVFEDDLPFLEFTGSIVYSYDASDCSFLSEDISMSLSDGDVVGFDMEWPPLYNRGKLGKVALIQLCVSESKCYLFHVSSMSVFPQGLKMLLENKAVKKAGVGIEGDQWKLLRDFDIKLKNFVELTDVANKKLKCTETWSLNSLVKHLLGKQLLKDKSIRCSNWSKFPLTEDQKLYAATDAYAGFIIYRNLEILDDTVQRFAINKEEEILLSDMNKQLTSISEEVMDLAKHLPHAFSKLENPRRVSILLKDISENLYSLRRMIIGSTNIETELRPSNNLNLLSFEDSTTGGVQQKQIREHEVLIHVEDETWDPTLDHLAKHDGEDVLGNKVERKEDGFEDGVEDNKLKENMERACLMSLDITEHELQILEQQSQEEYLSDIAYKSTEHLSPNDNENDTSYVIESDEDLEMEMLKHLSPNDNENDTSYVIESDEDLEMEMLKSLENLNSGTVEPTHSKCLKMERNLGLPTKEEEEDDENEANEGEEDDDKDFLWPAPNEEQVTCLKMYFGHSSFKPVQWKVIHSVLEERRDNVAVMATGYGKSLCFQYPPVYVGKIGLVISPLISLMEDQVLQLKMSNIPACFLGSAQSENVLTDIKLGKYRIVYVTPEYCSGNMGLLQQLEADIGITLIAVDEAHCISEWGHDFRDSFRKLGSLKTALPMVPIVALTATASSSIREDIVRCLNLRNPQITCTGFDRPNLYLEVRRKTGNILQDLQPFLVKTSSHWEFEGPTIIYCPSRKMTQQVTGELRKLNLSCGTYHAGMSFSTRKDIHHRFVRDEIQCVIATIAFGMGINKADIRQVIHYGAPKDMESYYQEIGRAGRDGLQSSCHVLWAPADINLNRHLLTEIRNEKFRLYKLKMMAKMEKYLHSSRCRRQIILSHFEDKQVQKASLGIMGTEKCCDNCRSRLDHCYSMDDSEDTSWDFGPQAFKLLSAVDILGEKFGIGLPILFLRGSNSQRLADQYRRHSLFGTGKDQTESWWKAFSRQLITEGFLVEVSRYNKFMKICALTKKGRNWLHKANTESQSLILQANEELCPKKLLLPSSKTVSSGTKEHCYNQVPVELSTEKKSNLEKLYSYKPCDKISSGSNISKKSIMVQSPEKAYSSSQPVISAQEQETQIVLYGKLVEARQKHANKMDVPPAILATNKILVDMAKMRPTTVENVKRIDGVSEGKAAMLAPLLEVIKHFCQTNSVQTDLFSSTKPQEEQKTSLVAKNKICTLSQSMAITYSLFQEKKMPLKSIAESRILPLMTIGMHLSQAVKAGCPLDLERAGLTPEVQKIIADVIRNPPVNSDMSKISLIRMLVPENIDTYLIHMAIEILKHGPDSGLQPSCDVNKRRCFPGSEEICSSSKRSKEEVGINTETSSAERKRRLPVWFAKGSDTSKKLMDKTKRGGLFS

HCT116 cells = experiment: HCT116 (MSI) 7 day viability, CellTiter Glo; type: cell-based; conditions: 7 days, read-out: HCT116 (MSI) Viability 7 Day Abs AC50
Method: (§1) Compounds were dissolved in DMSO to a concentration of 10 mM. Compounds were then serially diluted in 10 3-fold steps in DMSO using an EVO (Tecan). Plates were then spun down for 1 minute at 1,000 RPM at room temperature.
(§2) The colon carcinoma lines HCT116 (RRID: CVCL_0291) and HT29 (RRID: CVCL_0320) were obtained from ATCC. […] All cells were maintained at 37° C. with 5% CO2 incubator.
(§3) After harvesting, cells were spun down for 5 minutes at 1200 RPM. Cells were resuspended in 10 mL of growth media and counted using Countess (Thermo Fisher). Cell concentrations were adjusted to 50 cells/well for HCT116 and 500 cells/well for HT29. 50 μL of diluted cells were added to compound treated 384 well plates using a 12 channel, 300 uL electronic handheld pipette (Integra). Cell treated plates were placed in 37 C with 5% CO2 incubator for 7 days.
(§4) Afterwards, cells were removed from incubator and equilibrated to room temperature for 15 minutes. 35 uL of CellTiter Glo (Promega #G7573) reagent were added to each well using a 12 channel, 300 uL electronic handheld pipette (Integra). Plates were incubated for 20 minutes at room temperature. Luminescence quantification was performed using Envision (PerkinElmer).
(§5) For data analysis, the assay background signal was determined in wells containing medium, but no cells. Potencies were calculated by linear least squares fit to the four-parameter logistic IC50 equation. The reported IC50 values are the geometrical mean of at least 2 independent replicates.

HT29 cells = experiment: HT29 (MSS) 7 day viability, CellTiter Glo; type: cell-based; conditions: 7 days, read-out: HT29 (MSS) Viability 7 Day CTGAbs AC50
Method: as §1, §2, §3, §4, §5

SMILES | AC50 [1] [µM] | AC50 (HCT116 cells) [µM] | AC50 (HT29 cells) [µM] | AC50 (HCT116 cells; Homo sapiens, HCT-116, 168 h) [µM] | AC50 (HT29 cells; Homo sapiens, HT-29, 168 h) [µM]
C=CC(=O)N1CCc2nn(-c3ccc(C4CC4)cc3O)c3c2C(C1)N(C(=O)c1cnc(C(F)(F)F)c(OC)c1N)CC3 (stereo not drawn) [Compound 216, 1-(5-(4-amino-5-methoxy-6-(trifluoromethyl)nicotinoyl)-2-(4-cyclopropyl-2-hydroxyphenyl)-2,3,4,5,5a,6,8,9-octahydro-7H-1,2,5,7-tetraazabenzo[cd]azulen-7-yl)prop-2-en-1-one] | 0.0015 to 0.005 | 0.001 to 0.1 | > 3 |  | 
C=CC(=O)N1CCc2nn(-c3ccc(C4CCCC4)cc3O)c3c2C(C1)N(C(=O)c1cnc(C(F)(F)F)cc1N)CC3 (stereo not drawn) [Compound 217, 1-(5-(4-amino-6-(trifluoromethyl)nicotinoyl)-2-(4-cyclopentyl-2-hydroxyphenyl)-2,3,4,5,5a,6,8,9-octahydro-7H-1,2,5,7-tetraazabenzo[cd]azulen-7-yl)prop-2-en-1-one] | 0.0015 to 0.005 |  |  | 0.001 to 0.1 | > 3
C=CC(=O)N1CCc2nn(-c3ccc(C4CC4)c(F)c3O)c3c2C(C1)N(C(=O)c1cnc(C(F)(F)F)c(F)c1N)CC3 (stereo not drawn) [Compound 218, 1-(5-(4-amino-5-fluoro-6-(trifluoromethyl)nicotinoyl)-2-(4-cyclopropyl-3-fluoro-2-hydroxyphenyl)-2,3,4,5,5a,6,8,9-octahydro-7H-1,2,5,7-tetraazabenzo[cd]azulen-7-yl)prop-2-en-1-one] | 0.005 to 0.015 |  |  | 0.001 to 0.1 | > 3
C=CC(=O)N1CCc2nn(C34CC(C5CCCC5)(C3)C4)c3c2C(C1)N(C(=O)c1cnc(C(F)(F)F)cc1N)CC3 (stereo not drawn) [Compound 219, 1-(5-(4-amino-6-(trifluoromethyl)nicotinoyl)-2-(3-cyclopentylbicyclo[1.1.1]pentan-1-yl)-2,3,4,5,5a,6,8,9-octahydro-7H-1,2,5,7-tetraazabenzo[cd]azulen-7-yl)prop-2-en-1-one] | 0.005 to 0.015 | 0.001 to 0.1 | > 3 |  | 
C=CC(=O)N1CCc2nn(-c3ccc(C4CC4)cc3)c3c2C(C1)N(C(=O)c1c(N)nc(C(F)(F)F)c(F)c1N)CC3 (stereo not drawn) [Compound 220, 1-(2-(4-cyclopropylphenyl)-5-(2,4-diamino-5-fluoro-6-(trifluoromethyl)nicotinoyl)-2,3,4,5,5a,6,8,9-octahydro-7H-1,2,5,7-tetraazabenzo[cd]azulen-7-yl)prop-2-en-1-one] | 0.0015 to 0.005 |  |  | 0.001 to 0.1 | > 3
C=CC(=O)N1CCc2nn(-c3ccc(C4CC4)cc3O)c3c2C(C1C)N(C(=O)c1cnc(C(F)(F)F)cc1N)CC3 (stereo not drawn) [Compound 221, 1-(5-(4-amino-6-(trifluoromethyl)nicotinoyl)-2-(4-cyclopropyl-2-hydroxyphenyl)-6-methyl-2,3,4,5,5a,6,8,9-octahydro-7H-1,2,5,7-tetraazabenzo[cd]azulen-7-yl)prop-2-en-1-one] | 0.005 to 0.015 |  |  | 0.001 to 0.1 | > 3
C=CC(=O)N1CC(OC2CC(C#N)C2)c2nn(-c3ccc(C4CC4)cc3O)c3c2C(C1)N(C(=O)c1cnc(C(F)(F)F)cc1N)CC3 (stereo not drawn) [Compound 222, 3-((7-acryloyl-5-(4-amino-6-(trifluoromethyl)nicotinoyl)-2-(4-cyclopropyl-2-hydroxyphenyl)-3,4,5,5a,6,7,8,9-octahydro-2H-1,2,5,7-tetraazabenzo[cd]azulen-9-yl)oxy)cyclobutane-1-carbonitrile] | 0.0015 to 0.005 |  |  | 0.001 to 0.1 | > 3
C=CC(=O)N1CCc2nn(-c3ccc(C4CC4)cc3O)c3c2C(C1)N(C(=O)c1cnc(SC)c(F)c1N)CC3 (stereo not drawn) [Compound 223, 1-(5-(4-amino-5-fluoro-6-(methylthio)nicotinoyl)-2-(4-cyclopropyl-2-hydroxyphenyl)-2,3,4,5,5a,6,8,9-octahydro-7H-1,2,5,7-tetraazabenzo[cd]azulen-7-yl)prop-2-en-1-one] | 0.0015 to 0.005 |  |  | 0.001 to 0.1 | > 3
C=CC(=O)N1CCc2nn(-c3cc(F)c(C4CC4)cc3O)c3c2C(C1)N(C(=O)c1cnc(C(F)(F)F)cc1N)CC3 (stereo not drawn) [Compound 224, 1-(5-(4-amino-6-(trifluoromethyl)nicotinoyl)-2-(4-cyclopropyl-5-fluoro-2-hydroxyphenyl)-2,3,4,5,5a,6,8,9-octahydro-7H-1,2,5,7-tetraazabenzo[cd]azulen-7-yl)prop-2-en-1-one] | 0.005 to 0.015 |  |  | 0.001 to 0.1 | > 3
C=CC(=O)N1CCc2nn(-c3ccc(C4CC4)cc3CO)c3c2C(C1)N(C(=O)c1cnc(C(F)(F)F)cc1N)CC3 (stereo not drawn) [Compound 225, 1-(5-(4-amino-6-(trifluoromethyl)nicotinoyl)-2-(4-cyclopropyl-2-(hydroxymethyl)phenyl)-2,3,4,5,5a,6,8,9-octahydro-7H-1,2,5,7-tetraazabenzo[cd]azulen-7-yl)prop-2-en-1-one] | 0.015 to 0.055 |  |  | 0.1 to 0.25 | > 3
C=CC(=O)N1CCc2nn(-c3ccc(SC(F)(F)F)cc3O)c3c2C(C1)N(C(=O)c1cnc(C(F)(F)F)cc1N)CC3 (stereo not drawn) [Compound 226, 1-(5-(4-amino-6-(trifluoromethyl)nicotinoyl)-2-(2-hydroxy-4-((trifluoromethyl)thio)phenyl)-2,3,4,5,5a,6,8,9-octahydro-7H-1,2,5,7-tetraazabenzo[cd]azulen-7-yl)prop-2-en-1-one] | 0.005 to 0.015 |  |  | 0.001 to 0.1 | > 3
C=CC(=O)N1CCc2nn(-c3ccc(C4CC4)c(F)c3O)c3c2C(C1)N(C(=O)c1cnc(C(C)(F)F)c(F)c1N)CC3 (stereo not drawn) [Compound 227, 1-(5-(4-amino-6-(1,1-difluoroethyl)-5-fluoronicotinoyl)-2-(4-cyclopropyl-3-fluoro-2-hydroxyphenyl)-2,3,4,5,5a,6,8,9-octahydro-7H-1,2,5,7-tetraazabenzo[cd]azulen-7-yl)prop-2-en-1-one] | 0.005 to 0.015 |  |  | 0.001 to 0.1 | < 1
C=CC(=O)N1CCc2nn(-c3ccc(C4CC4)cc3O)c3c2C(C1)N(C(=O)c1nnc(Br)cc1N)CC3 (stereo not drawn) [Compound 228, 1-(5-(4-amino-6-bromopyridazine-3-carbonyl)-2-(4-cyclopropyl-2-hydroxyphenyl)-2,3,4,5,5a,6,8,9-octahydro-7H-1,2,5,7-tetraazabenzo[cd]azulen-7-yl)prop-2-en-1-one] | 0.0015 to 0.005 |  |  | 0.001 to 0.1 | > 3
C=CC(=O)N1CCc2nn(-c3ccc(C4CC4)c(F)c3O)c3c2C(C1)N(C(=O)c1cnc(Br)c(F)c1N)CC3 (stereo not drawn) [Compound 229, 1-(5-(4-amino-6-bromo-5-fluoronicotinoyl)-2-(4-cyclopropyl-3-fluoro-2-hydroxyphenyl)-2,3,4,5,5a,6,8,9-octahydro-7H-1,2,5,7-tetraazabenzo[cd]azulen-7-yl)prop-2-en-1-one] | 0.015 to 0.055 | 0.001 to 0.1 | > 3 |  | 
C=CC(=O)N1CC2c3c(nn(-c4ccc(C5CC5)cc4)c3CCN2C(=O)c2ccc(C(F)(F)F)cc2)C(n2ccccc2=O)C1 (stereo not drawn) [Compound 231, 1-(7-acryloyl-2-(4-cyclopropylphenyl)-5-(4-(trifluoromethyl)benzoyl)-3,4,5,5a,6,7,8,9-octahydro-2H-1,2,5,7-tetraazabenzo[cd]azulen-9-yl)pyridin-2(1H)-one] | 0.015 to 0.055 |  |  | 0.001 to 0.1 | > 3
C=CC(=O)N1CC(OC2CC2)c2nn(-c3ccc(C4CC4)cc3O)c3c2C(C1)N(C(=O)c1cnc(C(F)(F)F)cc1N)CC3 (stereo not drawn) [Compound 232, 1-(5-(4-amino-6-(trifluoromethyl)nicotinoyl)-9-cyclopropoxy-2-(4-cyclopropyl-2-hydroxyphenyl)-2,3,4,5,5a,6,8,9-octahydro-7H-1,2,5,7-tetraazabenzo[cd]azulen-7-yl)prop-2-en-1-one] | 0.005 to 0.015 |  |  | 0.001 to 0.1 | > 3
C=CC(=O)N1CC2c3c(nn(-c4ccc(C5CC5)cc4)c3CCN2C(=O)c2cnc(C(F)(F)F)cc2N)C2(C1)CN(c1nnc(C)s1)C2 (stereo not drawn) [Compound 233, 1-(5′-(4-amino-6-(trifluoromethyl)nicotinoyl)-2′-(4-cyclopropylphenyl)-1-(5-methyl-1,3,4-thiadiazol-2-yl)-2′,3′,4′,5′,5a′,6′-hexahydro-1′,2′,5′,7′-tetraazaspiro[azetidine-3,9′-benzo[cd]azulen]-1′(9a′),2a′-dien-7′(8′H)-yl)prop-2-en-1-one] | > 0.055 |  |  | 0.1 to 0.25 | > 3
C=CC(=O)N1CC(OCc2cnc3sccn23)c2nn(-c3ccc(C4CC4)cc3)c3c2C(C1)N(C(=O)c1ccc(C(F)(F)F)nc1)CC3 (stereo not drawn) [Compound 234, 1-(2-(4-cyclopropylphenyl)-9-(imidazo[2,1-b]thiazol-5-ylmethoxy)-5-(6-(trifluoromethyl)nicotinoyl)-2,3,4,5,5a,6,8,9-octahydro-7H-1,2,5,7-tetraazabenzo[cd]azulen-7-yl)prop-2-en-1-one] | 0.015 to 0.055 |  |  | 0.001 to 0.1 | > 3
